Laboratory results from patent US9663478B2, “Benzotriazine oxides as drugs targeting Mycobacterium tuberculosis” (priority 2011, dated 2017).
Converted amounts (≈) assume the structure as drawn. Where two headings read alike, the source gives them in different places.

Assays:
Mtb H37Rv [1] = assay: TB MIC - SRI, resazurin-based microplate assay; assay type: cell-based, Mycobacterium tuberculosis; conditions: for MIC: Mycobacterium tuberculosis, H37RV
Mtb H37Rv [2] = assay: TB MIC - ITR (UIC), Institute for Tuberculosis Research; assay type: cell-based, Mycobacterium tuberculosis; conditions: for MIC: Mycobacterium tuberculosis, H37RV, read-out: TB MIC - ITR
NRP Mtb H37Rv cells = assay: Low-oxygen recovery assay (LORA) MIC; assay type: cell-based, Mycobacterium tuberculosis; conditions: for MIC: Mycobacterium tuberculosis, H37RV, read-out: LORA MIC - ITR
[3] = Tables P1-P3, read-out: TB MIC - SRI
[4] = Tables 1-4 and text, read-out: TB MIC - SRI

[O-][n+]1nc(N[C@@H]2C[C@H]3CC[C@@H]2C3)[n+]([O-])c2ccc(F)cc21 (racemic) [SRI-012280] gave an MIC (Mtb H37Rv [1]; [3]) of 0.312 µg/mL (≈ 1.07 µM), a TB MIC - UIC (Mtb H37Rv [2]; Tables P1, P2) of less than 0.125 µg/mL and an LORA MIC (NRP Mtb H37Rv cells; Tables P1, P2, non-replicating M. tuberculosis) of 0.21 µg/mL. For the same compound, the “VERO Tox-SRI” value (Vero cells; African green monkey, 72 h) was less than 2.5.
In the case of [O-][n+]1nc(N[C@@H]2C[C@H]3CC[C@@H]2C3)[n+]([O-])c2cc3c(cc21)CCC3 (racemic) [SRI-012404], the MIC (Mtb H37Rv [1]; [3]) is reported as 1.25 µg/mL (≈ 4 µM) and the “VERO Tox-SRI” value (Vero cells; African green monkey, 72 h) is reported as 50.
For Cc1cccc2c1[n+]([O-])c(N[C@@H]1C[C@H]3CC[C@@H]1C3)n[n+]2[O-] (racemic) [SRI-012461], the MIC (Mtb H37Rv [1]; [3]) was 0.156 µg/mL (≈ 0.545 µM) and the “VERO Tox-SRI” value (Vero cells; African green monkey, 72 h) was 2.3.
For CSc1c(C)[n+]([O-])c2ccccc2[n+]1[O-] [Cmpd 3], the “Vero Tox CC50” value (Vero cells) was greater than 16 µg/mL.
With COCCNC(=O)c1ccc2c(c1)[n+]([O-])c(O)c(C#N)[n+]2[O-] [Cmpd 4] the MIC (Mtb H37Rv [1]; [4]) was greater than 20 µg/mL, the MIC (NRP Mtb H37Rv cells; NRP Mtb, Tables 1-4 and text) was greater than 32 µg/mL and the “Vero Tox CC50” value (Vero cells; African green monkey, 72 h) was greater than 16 µg/mL.
In the case of COCCNC(=O)c1ccc2c(c1)[n+]([O-])c(C(C)=O)c(C)[n+]2[O-] [Cmpd 5], the MIC (Mtb H37Rv [1]; [4]) is reported as 10 µg/mL (≈ 31.3 µM), the MIC (Mtb H37Rv [2]; Tables 1-4) is reported as 27 µg/mL (≈ 84.6 µM) and the MIC (NRP Mtb H37Rv cells; NRP Mtb, Tables 1-4 and text) is reported as greater than 32 µg/mL. The “Vero Tox CC50” value (Vero cells; African green monkey, 72 h) was greater than 16 µg/mL.
For Cc1c(N2CCCC2)[n+]([O-])c2ccccc2[n+]1[O-] [Cmpd 6], the MIC (Mtb H37Rv [1]; [4]) was greater than 10 µg/mL, the MIC (NRP Mtb H37Rv cells; NRP Mtb, Tables 1-4 and text) was greater than 32 µg/mL and the “Vero Tox CC50” value (Vero cells; African green monkey, 72 h) was greater than 16 µg/mL.
[O-][n+]1nc(NC2CC2)[n+]([O-])c2ccccc21 [Compound 8b, 3-(cyclopropylamino)benzo[e][1,2,4]triazine 1,4-dioxide] was tested, and the MIC (Mtb H37Rv [1]; [4]) was 2.5 µg/mL (≈ 11.5 µM) and the “Vero Tox CC50” value (Vero cells; African green monkey, 72 h) was 21 µg/mL.
CC(C)(C)Nc1n[n+]([O-])c2ccccc2[n+]1[O-] [Compound 8c, 3-(tert-butylamino)benzo[e][1,2,4]triazine 1,4-dioxide] gave an MIC (Mtb H37Rv [1]; Table 5, read-out: MIC, H37Rv) of 2.5 µg/mL (≈ 10.7 µM), an MIC (Mtb H37Rv [1]; [4]) of 1.2 µg/mL (≈ 5.12 µM) and an MIC (Mtb H37Rv [2]; Tables 1-4) of 1.9 µg/mL (≈ 8.11 µM). The MIC (NRP Mtb H37Rv cells; NRP Mtb, Tables 1-4 and text) was 0.82 µg/mL (≈ 3.5 µM) and the “Vero Tox CC50” value (Vero cells; African green monkey, 72 h) was 8.0 µg/mL.
In the case of [O-][n+]1nc(NC2CCCC2)[n+]([O-])c2ccccc21 [Compound 8e, 3-(cyclopentylamino)benzo[e][1,2,4]triazine 1,4-dioxide], the MIC (Mtb H37Rv [1]; [4]) is reported as 2.5 µg/mL (≈ 10.2 µM), the MIC (Mtb H37Rv [2]; Tables 1-4) is reported as 3.6 µg/mL (≈ 14.6 µM) and the MIC (NRP Mtb H37Rv cells; NRP Mtb, Tables 1-4 and text) is reported as 0.68 µg/mL (≈ 2.76 µM). For the same compound, the “Vero Tox CC50” value (Vero cells; African green monkey, 72 h) was 10 µg/mL.
Compound CCCC(C)Nc1n[n+]([O-])c2ccccc2[n+]1[O-] (stereo not shown) [Compound 8h, 3-(pentan-2-ylamino)benzo[e][1,2,4]triazine 1,4-dioxide] has an MIC (Mtb H37Rv [1]; [4]) of 5 µg/mL (≈ 20.1 µM), an MIC (Mtb H37Rv [2]; Tables 1-4) of 1.9 µg/mL (≈ 7.65 µM) and an MIC (NRP Mtb H37Rv cells; NRP Mtb, Tables 1-4 and text) of 0.99 µg/mL (≈ 3.99 µM). For the same compound, the “Vero Tox CC50” value (Vero cells; African green monkey, 72 h) was 26 µg/mL.
C[C@@H](Nc1n[n+]([O-])c2ccccc2[n+]1[O-])C1CCCCC1 [Compound 8k, (R)-3-((1-cyclohexylethyl)amino)benzo[e][1,2,4]triazine 1,4-dioxide] was tested, and the MIC (Mtb H37Rv [1]; [4]) was 1.2 µg/mL (≈ 4.16 µM), the MIC (Mtb H37Rv [2]; Tables 1-4) was 0.92 µg/mL (≈ 3.19 µM) and the MIC (NRP Mtb H37Rv cells; NRP Mtb, Tables 1-4 and text) was 0.36 µg/mL (≈ 1.25 µM). The “Vero Tox CC50” value (Vero cells; African green monkey, 72 h) was 8.9 µg/mL.
Compound CC(C)CCC(C)Nc1n[n+]([O-])c2ccccc2[n+]1[O-] (stereo not shown) [Compound 8l, 3-((5-methylhexan-2-yl)amino)benzo[e][1,2,4]triazine 1,4-dioxide] has an MIC (Mtb H37Rv [1]; [4]) of 1.2 µg/mL (≈ 4.34 µM), an MIC (Mtb H37Rv [2]; Tables 1-4) of 0.52 µg/mL (≈ 1.88 µM) and an MIC (NRP Mtb H37Rv cells; NRP Mtb, Tables 1-4 and text) of 0.38 µg/mL (≈ 1.38 µM).
In the case of [O-][n+]1nc(N[C@@H]2C[C@H]3CC[C@@H]2C3)[n+]([O-])c2ccccc21 [Compound 8m, 3-((1R,2R,4S)-bicyclo[2.2.1]heptan-2-ylamino)benzo[e][1,2,4]triazine 1,4-dioxide], the MIC (Mtb H37Rv [1]; [4]) is reported as 0.62 µg/mL (≈ 2.28 µM), the MIC (Mtb H37Rv [2]; Tables 1-4) is reported as 0.6 µg/mL (≈ 2.2 µM) and the MIC (NRP Mtb H37Rv cells; NRP Mtb, Tables 1-4 and text) is reported as 0.42 µg/mL (≈ 1.54 µM). For the same compound, the “Vero Tox CC50” value (Vero cells; African green monkey, 72 h) was 3.4 µg/mL.
In the case of [O-][n+]1nc(N[C@H]2[C@@H]3C[C@H]4C[C@@H](C3)C[C@@H]2C4)[n+]([O-])c2ccccc21 [Compound 8n, 3-((1R,3S,5r,7r)-adamantan-2-ylamino)benzo[e][1,2,4]triazine 1,4-dioxide], the “TB MIC - SRI” value (Mtb H37Rv [1]; Tables 1-4 and text) is reported as 2.5 µg/mL, the “TB MIC - ITR” value (Mtb H37Rv [2]; Tables 1-4) is reported as 1.9 µg/mL and the “LORA MIC - ITR” value (NRP Mtb H37Rv cells; NRP Mtb, Tables 1-4 and text) is reported as 2.3 µg/mL. The “Vero Tox CC50” value (Vero cells) was 7.3 µg/mL.
For CCNc1n[n+]([O-])c2cc(F)ccc2[n+]1[O-] [Compound 15aa, 3-(ethylamino)-7-fluorobenzo[e][1,2,4]triazine 1,4-dioxide], the MIC (Mtb H37Rv [1]; [4]) was 0.62 µg/mL (≈ 2.77 µM), the MIC (Mtb H37Rv [2]; Tables 1-4) was 0.35 µg/mL (≈ 1.56 µM) and the MIC (NRP Mtb H37Rv cells; NRP Mtb, Tables 1-4 and text) was 0.75 µg/mL (≈ 3.35 µM).
[O-][n+]1nc(NC2CC2)[n+]([O-])c2ccc(F)cc21 [Compound 15ab, 3-(cyclopropylamino)-7-fluorobenzo[e][1,2,4]triazine 1,4-dioxide] showed an MIC (Mtb H37Rv [1]; [4]) of 0.31 µg/mL (≈ 1.31 µM), an MIC (Mtb H37Rv [2]; Tables 1-4) of 0.93 µg/mL (≈ 3.94 µM) and an MIC (NRP Mtb H37Rv cells) of 3.5 µg/mL (≈ 14.8 µM). The “Vero Tox CC50” value (Vero cells; African green monkey, 72 h) was 1.3 µg/mL.
[O-][n+]1nc(NC2CCC2)[n+]([O-])c2ccc(F)cc21 [Compound 15ad, 3-(cyclobutylamino)-7-fluorobenzo[e][1,2,4]triazine 1,4-dioxide] was tested, and the MIC (Mtb H37Rv [1]; [4]) was 0.31 µg/mL (≈ 1.24 µM), the MIC (Mtb H37Rv [2]; Tables 1-4) was 0.4 µg/mL (≈ 1.6 µM) and the MIC (NRP Mtb H37Rv cells) was 0.88 µg/mL (≈ 3.52 µM). For the same compound, the “Vero Tox CC50” value (Vero cells; African green monkey, 72 h) was 1.6 µg/mL.
Compound [O-][n+]1nc(NC2CCCC2)[n+]([O-])c2ccc(F)cc21 [Compound 15ae, 3-(cyclopentylamino)-7-fluorobenzo[e][1,2,4]triazine 1,4-dioxide] has an MIC (Mtb H37Rv [1]; [4]) of 0.31 µg/mL (≈ 1.17 µM), an MIC (Mtb H37Rv [2]; Tables 1-4) of 0.33 µg/mL (≈ 1.25 µM) and an MIC (NRP Mtb H37Rv cells; NRP Mtb, Tables 1-4 and text) of 0.34 µg/mL (≈ 1.29 µM).
Compound [O-][n+]1nc(NC2CCCCC2)[n+]([O-])c2ccc(F)cc21 [Compound 15af, 3-(cyclohexylamino)-7-fluorobenzo[e][1,2,4]triazine 1,4-dioxide] has an MIC (Mtb H37Rv [1]; [4]) of 0.62 µg/mL (≈ 2.23 µM), an MIC (Mtb H37Rv [2]; Tables 1-4) of 0.68 µg/mL (≈ 2.44 µM) and an MIC (NRP Mtb H37Rv cells; NRP Mtb, Tables 1-4 and text) of 0.47 µg/mL (≈ 1.69 µM).
[O-][n+]1nc(N[C@@H]2C[C@H]3CC[C@@H]2C3)[n+]([O-])c2ccc(F)cc21 [Compound 15am, 3-((1R,2R,4S)-bicyclo[2.2.1]heptan-2-ylamino)-7-fluorobenzo[e][1,2,4]triazine 1,4-dioxide] gave an MIC (Mtb H37Rv [1]; [4]) of 0.31 µg/mL (≈ 1.07 µM), an MIC (Mtb H37Rv [2]; Tables 1-4) of less than 0.12 µg/mL and an MIC (NRP Mtb H37Rv cells; NRP Mtb, Tables 1-4 and text) of 0.21 µg/mL (≈ 0.723 µM). For the same compound, the “Vero Tox CC50” value (Vero cells; African green monkey, 72 h) was less than 2.5 µg/mL.
